In PubChem BioAssay AID248 (DTP/NCI, 2004):
“And” between values parts separate entries of the source, which are not always exact repeats. Identical values can stand only once. Toxic doses and inconclusive results are not listed. Square brackets hold non-standard residues; d marks the D form. Peptide text beside a SMILES is read from it. * marks the point of attachment. ξ: configuration not given here. ξF = NC(Cc1ccccc1)C(=O)O; Cbz = O=C(OCc1ccccc1)*

Test system: L1210 leukemia ip in BDF1 mice, survival T/C
Test: NCI In Vivo Anticancer Drug Screen. Data for tumor model L1210 Leukemia (intraperitoneal) in B6D2F1 (BDF1) mice
Conditions: endpoint: mean survival time, higher = longer survival
Method in brief: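 Mice bearing the transplanted tumor received compound or vehicle. Survival of the treated group was divided by that of the vehicle-treated control group to give the ratio.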

[1] = dose: 50.0 mg/kg/injection, schedule: Q01DX009 (ip), vehicle: Klucel (hydroxypropylcellulose) (HPC)
[2] = dose: 100.0 mg/kg/injection, schedule: Q01DX009 (ip), vehicle: Klucel (hydroxypropylcellulose) (HPC)
[3] = dose: 100.0 mg/kg/injection, schedule: Q04DX003 (ip), vehicle: Klucel (hydroxypropylcellulose) (HPC)
[4] = dose: 200.0 mg/kg/injection, schedule: Q01DX009 (ip), vehicle: Klucel (hydroxypropylcellulose) (HPC)
[5] = dose: 200.0 mg/kg/injection, schedule: Q04DX003 (ip), vehicle: Klucel (hydroxypropylcellulose) (HPC)
[6] = dose: 400.0 mg/kg/injection, schedule: Q04DX002 (ip), vehicle: Klucel (hydroxypropylcellulose) (HPC)
[7] = dose: 100.0 mg/kg/injection, schedule: Q01DX001 (ip), vehicle: saline

`CCC(=O)NC1CC(OC2CC(O)(C(C)=O)Cc3c(O)c4c(c(O)c32)C(=O)c2c(OC)cccc2C4=O)OC(C)C1O` (stereo not given) was tested, and the T/C (dose: 2.0 mg/kg/injection, schedule: Q04DX003 (ip), vehicle: water) was 104 % of control, the T/C (dose: 3.12 mg/kg/injection, schedule: Q01DX009 (ip), vehicle: saline with Tween-80) was 96 % of control and the T/C (dose: 4.0 mg/kg/injection, schedule: Q04DX003 (ip), vehicle: water) was 105 % of control. For the same compound, the T/C (dose: 6.25 mg/kg/injection, schedule: Q01DX009 (ip), vehicle: saline with Tween-80) was 105 % of control, the T/C (dose: 8.0 mg/kg/injection, schedule: Q04DX003 (ip), vehicle: water) was 103 % of control and the T/C (dose: 12.5 mg/kg/injection, schedule: Q01DX009 (ip), vehicle: saline with Tween-80) was 105 % of control. The T/C (dose: 16.0 mg/kg/injection, schedule: Q04DX003 (ip), vehicle: water) was 101 % of control and 102 % of control, the T/C (dose: 18.75 mg/kg/injection, schedule: Q04DX003 (ip), vehicle: saline with Tween-80) was 105 % of control and the T/C (dose: 25.0 mg/kg/injection, schedule: Q01DX009 (ip), vehicle: saline with Tween-80) was 111 % of control. The T/C (dose: 32.0 mg/kg/injection, schedule: Q04DX003 (ip), vehicle: water) was 116 % of control, the T/C (dose: 37.5 mg/kg/injection, schedule: Q04DX003 (ip), vehicle: saline with Tween-80) was 105 % of control and the T/C (dose: 50.0 mg/kg/injection, schedule: Q01DX009 (ip), vehicle: saline with Tween-80) was 113 % of control. For the same compound, the T/C (dose: 64.0 mg/kg/injection, schedule: Q04DX003 (ip), vehicle: water) was 112 % of control, the T/C (dose: 75.0 mg/kg/injection, schedule: Q04DX003 (ip), vehicle: saline with Tween-80) was 105 % of control and the T/C (dose: 150.0 mg/kg/injection, schedule: Q04DX003 (ip), vehicle: saline with Tween-80) was 122 % of control. For the same compound, the T/C (dose: 125.0 micrograms/kg/injection, schedule: Q04DX003 (ip), vehicle: water) was 100 % of control, the T/C (dose: 250.0 micrograms/kg/injection, schedule: Q04DX003 (ip), vehicle: water) was 102 % of control and the T/C (dose: 500.0 micrograms/kg/injection, schedule: Q04DX003 (ip), vehicle: water) was 97 % of control. For the same compound, the T/C (dose: 1000.0 micrograms/kg/injection, schedule: Q04DX003 (ip), vehicle: water) was 103 % of control and the T/C (dose: 2000.0 micrograms/kg/injection, schedule: Q04DX003 (ip), vehicle: water) was 96 % of control.
In the case of `O=C(CNC(=O)OCc1ccccc1)NC(Cc1ccccc1)C(=O)O` (stereo not drawn) (Cbz-Gly-[ξF]-OH), the T/C [1] is reported as 95 % of control, the T/C (dose: 50.0 mg/kg/injection, schedule: Q04DX003 (ip), vehicle: Klucel (hydroxypropylcellulose) (HPC)) is reported as 93 % of control and the T/C [2] is reported as 97 % of control. For the same compound, the T/C [3] was 98 % of control, the T/C [4] was 93 % of control and the T/C [5] was 100 % of control.
For `CC(=O)OCC(=O)[C@@]1(O)CC[C@H]2[C@@H]3C[C@H](F)C4=CC(=O)CC[C@]4(C)[C@H]3C(=O)C[C@@]21C`, the T/C (dose: 0.78 mg/kg/injection, schedule: Q01DX005 (ip), vehicle: saline) was 102 % of control, the T/C (dose: 1.56 mg/kg/injection, schedule: Q01DX005 (ip), vehicle: saline) was 102 % of control and the T/C (dose: 3.12 mg/kg/injection, schedule: Q01DX005 (ip), vehicle: saline) was 104 % of control. For the same compound, the T/C (dose: 100.0 mg/kg/injection, schedule: Q01DX001 (sc), vehicle: steriod suspending solution) was 96 % of control, the T/C (dose: 200.0 mg/kg/injection, schedule: Q01DX001 (sc), vehicle: steriod suspending solution) was 104 % of control and the T/C (dose: 400.0 mg/kg/injection, schedule: Q01DX001 (sc), vehicle: steriod suspending solution) was 102 % of control.
In the case of `NCCc1cnc(N=Nc2ccc(S(N)(=O)=O)cc2)[nH]1`, the T/C (dose: 100.0 mg/kg/injection, schedule: Q04DX003 (ip), vehicle: saline with Tween-80) is reported as 93 % of control, the T/C (dose: 200.0 mg/kg/injection, schedule: Q04DX003 (ip), vehicle: saline with Tween-80) is reported as 96 % of control and the T/C (dose: 400.0 mg/kg/injection, schedule: Q04DX003 (ip), vehicle: saline with Tween-80) is reported as 86 % of control.
`COC(=O)NS(=O)(=O)/C=C/N1CCCC1=O` was tested, and the T/C (dose: 75.0 mg/kg/injection, schedule: Q04DX003 (ip), vehicle: Klucel (hydroxypropylcellulose) (HPC)) was 96 % of control, the T/C (dose: 150.0 mg/kg/injection, schedule: Q04DX003 (ip), vehicle: Klucel (hydroxypropylcellulose) (HPC)) was 100 % of control and the T/C (dose: 300.0 mg/kg/injection, schedule: Q04DX003 (ip), vehicle: Klucel (hydroxypropylcellulose) (HPC)) was 100 % of control.
For `Cc1ccc(S(=O)C(c2ccccc2)C(c2ccccc2)C(C)O)cc1` (stereo not given), the T/C (dose: 100.0 mg/kg/injection, schedule: Q01DX009 (ip), vehicle: saline with Tween-80) was 89 % of control, the T/C (dose: 200.0 mg/kg/injection, schedule: Q01DX009 (ip), vehicle: saline with Tween-80) was 89 % of control and the T/C (dose: 400.0 mg/kg/injection, schedule: Q01DX009 (ip), vehicle: saline with Tween-80) was 91 % of control.
In the case of `NC(CSS(=O)(=O)O)=NCCc1ccccn1`, the T/C (dose: 12.5 mg/kg/injection, schedule: Q04DX002 (ip), vehicle: Klucel (hydroxypropylcellulose) (HPC)) is reported as 100 % of control, the T/C (dose: 25.0 mg/kg/injection, schedule: Q04DX002 (ip), vehicle: Klucel (hydroxypropylcellulose) (HPC)) is reported as 88 % of control and the T/C (dose: 50.0 mg/kg/injection, schedule: Q04DX002 (ip), vehicle: Klucel (hydroxypropylcellulose) (HPC)) is reported as 91 % of control. For the same compound, the T/C [6] was 90 % of control.
`O=C(O)C(Cc1cc(I)c(O)c(I)c1)c1ccccc1` (stereo not given) was tested, and the T/C [1] was 98 % of control, the T/C [2] was 97 % of control and the T/C [3] was 100 % of control. For the same compound, the T/C [4] was 101 % of control and the T/C [5] was 100 % of control.
For `CC(C)(c1cc(Br)sc1Br)c1cc(Br)sc1Br`, the T/C [1] was 95 % of control, the T/C [2] was 98 % of control and the T/C (dose: 100.0 mg/kg/injection, schedule: Q04DX003 (ip), vehicle: acetone) was 106 % of control. The T/C [4] was 101 % of control, the T/C (dose: 200.0 mg/kg/injection, schedule: Q04DX003 (ip), vehicle: acetone) was 117 % of control and the T/C (dose: 400.0 mg/kg/injection, schedule: Q04DX003 (ip), vehicle: acetone) was 104 % of control.
With `O=C1C(=O)C(c2ccccc2)Oc2ccccc21` (stereo not given) the T/C (dose: 50.0 mg/kg/injection, schedule: Q01DX001 (ip), vehicle: saline) was 89 % of control, the T/C [7] was 101 % of control and the T/C (dose: 200.0 mg/kg/injection, schedule: Q01DX001 (ip), vehicle: saline) was 98 % of control. The T/C (dose: 400.0 mg/kg/injection, schedule: Q01DX001 (ip), vehicle: saline) was 95 % of control.
With `Cn1nc(NN)c2cccnc21` the T/C (dose: 75.0 mg/kg/injection, schedule: Q01DX001 (ip), vehicle: other) was 103 % of control and the T/C (dose: 150.0 mg/kg/injection, schedule: Q01DX001 (ip), vehicle: other) was 104 % of control.
`Nc1ccc(C(=O)N/N=C/C=C/c2ccccc2)cc1` was tested, and the T/C (dose: 100.0 mg/kg/injection, schedule: Q04DX002 (ip), vehicle: Klucel (hydroxypropylcellulose) (HPC)) was 105 % of control, the T/C (dose: 200.0 mg/kg/injection, schedule: Q04DX002 (ip), vehicle: Klucel (hydroxypropylcellulose) (HPC)) was 96 % of control and the T/C [6] was 99 % of control.
`O=C(O)c1ccccc1NC(=S)c1ccccc1` was tested, and the T/C (dose: 25.0 mg/kg/injection, schedule: Q04DX002 (ip), vehicle: other) was 96 % of control, the T/C (dose: 50.0 mg/kg/injection, schedule: Q04DX002 (ip), vehicle: other) was 96 % of control and the T/C (dose: 100.0 mg/kg/injection, schedule: Q04DX002 (ip), vehicle: other) was 93 % of control and 104 % of control.
For `CCCC(C(=O)OCCN1CCCC12CCCCC2)C1CCCC1` (stereo not given), the T/C (dose: 13.0 mg/kg/injection, schedule: Q01DX Z (ip), vehicle: methylcellulose (MC)) was 92 % of control, the T/C (dose: 20.0 mg/kg/injection, schedule: Q01DX Z (ip), vehicle: methylcellulose (MC)) was 91 % of control and the T/C (dose: 30.0 mg/kg/injection, schedule: Q01DX Z (ip), vehicle: methylcellulose (MC)) was 88 % of control.
For `O=C(O)c1cc2ccccc2cc1O`, the T/C (dose: 100.0 mg/kg/injection, schedule: Q04DX002 (ip), vehicle: gum acacia) was 102 % of control and the T/C (dose: 200.0 mg/kg/injection, schedule: Q04DX002 (ip), vehicle: gum acacia) was 94 % of control.
For `ClCCN(CC#CCCCC#CCN(CCCl)CCCl)CCCl`, the T/C [7] was 168 % of control.
For `O=C1OC(c2ccccc2)(C2(c3ccccc3)C=C(c3ccccc3)C(=O)O2)C=C1c1ccccc1` (stereo not given), the T/C (dose: 100.0 mg/kg/injection, schedule: Q01DX001 (ip), vehicle: Klucel (hydroxypropylcellulose) (HPC)) was 100 % of control, the T/C [3] was 94 % of control and the T/C (dose: 200.0 mg/kg/injection, schedule: Q01DX001 (ip), vehicle: Klucel (hydroxypropylcellulose) (HPC)) was 97 % of control. For the same compound, the T/C [5] was 103 % of control, the T/C (dose: 400.0 mg/kg/injection, schedule: Q01DX001 (ip), vehicle: Klucel (hydroxypropylcellulose) (HPC)) was 100 % of control and the T/C (dose: 400.0 mg/kg/injection, schedule: Q04DX003 (ip), vehicle: Klucel (hydroxypropylcellulose) (HPC)) was 91 % of control.
